In patent publication US12135326B2 (priority 2019, dated 2024):
Values joined by “and” are separate entries in the source; they are usually repeats but may differ in a detail not shown here. Identical values can stand only once.

Key:
WT α-HL nanopore [1] = molecular target: T1, WT α-HL nanopore (Staphylococcus aureus, UniProt P09616); format: binding
WT α-HL nanopore [2] = molecular target: T1, WT α-HL nanopore; format: binding; remark: listed apart in the source

T1 sequence (P09616 27-319 limits assumed): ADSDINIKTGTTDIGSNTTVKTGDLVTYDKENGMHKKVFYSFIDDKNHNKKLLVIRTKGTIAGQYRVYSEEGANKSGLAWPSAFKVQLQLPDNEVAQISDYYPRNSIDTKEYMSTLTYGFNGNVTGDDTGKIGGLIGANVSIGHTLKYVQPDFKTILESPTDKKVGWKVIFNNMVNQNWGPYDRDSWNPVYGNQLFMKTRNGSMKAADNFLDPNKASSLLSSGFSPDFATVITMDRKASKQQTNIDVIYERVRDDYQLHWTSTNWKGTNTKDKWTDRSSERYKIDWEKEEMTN

5′-GATAGTGAGCCAAATTTAAA-3′ [oligomeric ssDNA]
mean value of % F (blockade level % Fb, center value±FWHM) (WT α-HL nanopore [1]): 0.289±0.175
sensing / translocation through α-HL nanopore by DOP (in words) (WT α-HL nanopore [1]): able to pass through the α-HL nanopore

Trimethyl-β-cyclodextrin [TriM-β-CD]
1/τoff (WT α-HL nanopore [1]): 2.515 ± 0.440 s⁻¹ and 2.437 ± 0.449 s⁻¹ and 2.953 ± 0.616 s⁻¹ and 3.640 ± 0.330 s⁻¹
mean Fp (mean blockage depth) (WT α-HL nanopore [1]): 0.078±0.010
mean τoff (dwell time constant) (WT α-HL nanopore [1]): 0.347 ± 0.067 s
Ip (mean blockage depth) (WT α-HL nanopore [2]): 0.065±0.002
τoff (WT α-HL nanopore [2]): 0.386 ± 0.392 s
